These results are taken from paper PMC11990136, “Prenylation of Flavanones by an Aromatic Prenyltransferase from Fusarium globosum” (Molecules, 2025).

Experiment [1] concerns the target T1, FgPT1 (Fusarium globosum, UniProt A0A8H5XPW9).
T1 construct: gene FGLOB1_12591; full length, 426 residues, N-terminal His6 tag (pET-28a, synthetic gene), E. coli BL21(DE3), Ni-NTA
Put plainly: HPLC product formation, Michaelis-Menten fit. The format is biochemical. Particulars: 1 mM DMAPP, 1 mM BaCl2, 100 mM Tris-HCl pH 7.5, 37 °C, apparent. An excerpt: HPLC product formation, Michaelis-Menten fit on FgPT1

Experiment [2] concerns the target T1, FgPT1. Put plainly: HPLC / LC-MS product detection. The format is biochemical. To be noted: prenyl donor; with flavanone acceptor, metal ion (Ba2+ best), Tris-HCl pH 7.5, 37 °C.

T1 sequence (A0A8H5XPW9 entry or part of it): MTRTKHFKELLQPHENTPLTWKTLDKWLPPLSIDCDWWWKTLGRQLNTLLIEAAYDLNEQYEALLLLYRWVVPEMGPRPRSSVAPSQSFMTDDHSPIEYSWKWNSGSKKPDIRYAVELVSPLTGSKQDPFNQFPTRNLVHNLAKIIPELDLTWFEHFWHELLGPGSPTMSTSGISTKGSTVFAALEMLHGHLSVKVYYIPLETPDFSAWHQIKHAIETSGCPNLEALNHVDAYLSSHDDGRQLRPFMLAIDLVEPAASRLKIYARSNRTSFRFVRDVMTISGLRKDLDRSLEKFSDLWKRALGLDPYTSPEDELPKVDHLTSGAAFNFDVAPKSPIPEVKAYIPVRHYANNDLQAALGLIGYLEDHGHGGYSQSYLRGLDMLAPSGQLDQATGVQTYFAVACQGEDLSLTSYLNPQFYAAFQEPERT

For `O=C1CC(c2ccccc2)Oc2cc(O)cc(O)c21` (racemic) [compound 5, Rac-pinocembrin], the “KM (mM)” value at FgPT1 [1] (racemic substrate) was 0.14 ± (0.037) mM. With `CC(C)=CCOP(=O)(O)OP(=O)(O)O` [DMAPP], the “HPLC / LC-MS product detection” value on FgPT1 [2] is reported as “using DMAPP as the prenyl donor revealed catalytic activity exclusively toward six flavanones”.

In the case of `O=C1C[C@@H](c2ccc(O)cc2)Oc2cc(O)cc(O)c21` [compound 1, Naringenin], at FgPT1 [1], the “KM (mM)” value is 0.26 ± (0.077) mM. As to `COc1ccc([C@@H]2CC(=O)c3c(O)cc(O)cc3O2)cc1O` [compound 2, Hesperetin], the “KM (mM)” value at FgPT1 [1] is on record as 0.94 ± (0.075) mM.

With `O=C1C[C@@H](c2ccc(O)c(O)c2)Oc2cc(O)cc(O)c21` [compound 3, Eriodictyol], at FgPT1 [1], the “KM (mM)” value is reported as 0.23 ± (0.026) mM.

Consider `O=C1C[C@@H](c2ccc(O)cc2)Oc2cc(O)ccc21` [compound 4, Liquiritigenin], for which the “KM (mM)” value at FgPT1 [1] was 0.93 ± (0.161) mM. Still for that read-out and setting: under `O=C1c2c(O)cc(O)cc2OCC1c1ccc(O)cc1` (stereo not shown) [compound 6, Dihydrogenistein] stands 0.14 ± (0.026) mM.
